Activity calls are given as the source filed them.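 The calls were made as follows: active = compounds raising the signal whose fitted half-maximal concentration is at or below their top tested dose (cut at about 25 µM in these data); inconclusive = flat fit at 30 to 70% activity, or a poor fit; inactive = the rest.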
tested on: INS-1E rat beta cells, no cytokines, CellTiter-Glo ATP, 48 h; assay: ATP level change in INS-1E without cytokines, dose response, counter-screen for beta-cell apoptosis protection project, INS-1E rat cells, ATP luminescence, cherry pick (AID 463229)

Structure (SMILES) | AC50
O=S(=O)(c1ccc(NC(=S)NCc2cccnc2)cc1)N1CCCCC1 | 1.62 µM
Cc1ccc(NC2=CC(=O)C(=O)c3ccccc32)cc1 | 7.65 µM
CC(=O)OC1COC(OC2C(O)C(C)OC(OC3C(OC4CCC5(C)C(CCC6(C)C5CC=C5C7CC(C)(C)CCC7(C(=O)O)CCC56C)C4(C)CO)OCC(O)C3O)C2O)C(O)C1OC(C)=O (configuration not stated) | 7.09 µM
CCCCCCc1cc2cc(C(=O)Nc3ccccc3)c(=O)oc2cc1O | 3.24 µM
Clc1ccc2c(N/N=C/c3cccc(Br)c3)ccnc2c1 | 10.7 µM
O=c1c2c(nc3c(-c4ccc(Cl)cc4)c[nH]n13)CCCC2 | 7.43 µM
CC(C)OCCCNc1ncnc2c1[nH]c1ccccc12 | 4.34 µM
CC(C)c1ccc(COc2ccc(C(=O)N3CCOCC3)cc2)cc1 | 12.9 µM
COc1cc2c(cc1OC)-c1c(OC)c(OC)c(OC)c3ccnc(c13)C2=O | 6.65 µM
CCCCCCCCCC[N+](C)(C)CC/C=C1/c2ccccc2Sc2ccc(Cl)cc21 | 7.99 µM
CCOc1ccc(S(=O)(=O)N(C(=O)c2ccco2)c2cc3sc(=O)oc3c3ccccc23)cc1 | 12.7 µM
N=c1c2c(ncn1CCCO)Oc1ccc3ccccc3c1C2c1ccccc1 (configuration not stated) | > 26 µM (inactive)
Cc1ccc(Sc2cc(C)nc(-c3ccccn3)n2)cc1 | > 26 µM (inactive)
Cc1ccc(-c2nn(-c3ccccc3)cc2/C=N/NC(=O)c2ccc(Br)o2)cc1 | 0.569 µM
Cc1ccc(Nc2c3c(nc4ccccc24)CCC3)cc1 | 16 µM
CCS(=O)(=O)c1ncc(Cl)c(C(=O)Nc2ccc(S(=O)(=O)N(C)c3ccccc3)cc2)n1 | 6.63 µM
Cc1nnsc1C(=O)N/N=C/c1ccc2ccccc2c1O | 1.81 µM
COC(=O)c1c(C)oc2ccc(N(C(=O)c3ccncc3)S(=O)(=O)c3ccc4ccccc4c3)cc12 | 17.9 µM
CC1(C)CC(N2CCN(Cc3ccccc3)CC2)=CC(=[N+]2CCCCC2)C1 | 2.55 µM
Cc1ccc(/C=C/C(=O)c2ccc([N+](=O)[O-])o2)cc1 | 7.11 µM
O=C(Nc1ccc(Br)c(C(F)(F)F)c1)c1ccc(C(F)(F)F)cc1 | 7.74 µM
CCCCn1c(=N)n(CC(=O)c2ccc(Br)s2)c2ccccc21 | 13.1 µM

Structure (SMILES) | AC50
C=CCSc1nsc(NC(=O)Nc2ccc(F)cc2)n1 | 3.4 µM
Cc1ccc(O)c(N=Nc2nccs2)c1 | 7.04 µM
CC(C)Oc1ccc(S(=O)(=O)N2CCCCC2)cc1NC(=O)CN1CCCC1c1cccs1 (configuration not stated) | 6.59 µM
N#Cc1c(Cl)nsc1NC(=O)c1ccccc1 | 8.12 µM
CCC(CO)Oc1cc(NCc2ccc(C)c(C)c2)c2ncn(C(C)C)c2c1 (configuration not stated) | 4.91 µM
COc1cc(/C=C2\CC/C(=C\c3cc(OC)c(O)c(OC)c3)C2=O)cc(OC)c1O | 4.29 µM
Cc1cccc2sc(NNC(=O)c3ccc(S(=O)(=O)N4CCc5ccccc5C4)cc3)nc12 | 3.93 µM
Cc1cc(N)c2cc(NC(=O)/C=C/c3ccccc3Cl)ccc2n1 | 14.2 µM
O=[N+]([O-])c1ccc(O)c(/C=N/Nc2ccccn2)c1 | 1.84 µM
COCCNC(=O)CSC1=N/C(=C/c2ccc(Cl)c(Cl)c2)C(=O)N1c1ccccc1F | 8.25 µM
COc1ccc(/C=C/c2nc3ccccc3n2C)cc1 | 3.13 µM
COc1ccccc1NC1=C(N2CCCCC2)C(=O)c2ccccc2C1=O | 2.21 µM
CCCCn1c(NS(=O)(=O)c2ccccc2)c(S(=O)(=O)c2ccc(C)cc2)c2nc3ccccc3nc21 | 22.1 µM
COc1ccc(CNCCc2c(C)[nH]c3ccc(OC(F)(F)F)cc23)c(OC)c1 | 6.6 µM
COc1ccc(-c2c[n+]3c4n2CCCCC4=C(c2ccc(Br)cc2)C3)cc1 | 3.14 µM
COc1ccc(/C=N/Nc2cc(C)nc3ccc(Br)cc23)cc1 | 7.02 µM
Cc1ccc(-c2c[n+]3c(n2-c2ccccc2)CCC3)cc1 | 2.02 µM
O=C(Nc1nc2ccccc2[nH]1)c1ccccc1F | 2.14 µM
S=C(NCc1ccc(Cl)cc1)NC12CC3CC(CC(C3)C1)C2 | 13.9 µM
Cc1ccc2[nH]c(=O)c(C3C(C#N)=C(N)Oc4c3ccc3cccnc43)cc2c1 (configuration not stated) | 4.74 µM
CCN(CC)c1ccc(/C=N/NC(=O)c2ccoc2C)c(O)c1 | 2.04 µM
CC(=O)c1c(C)[nH]c(C(=O)OCC(=O)Nc2ccc(C)cc2[N+](=O)[O-])c1C | 1.6 µM

Structure (SMILES) | AC50
CCOc1cc(/C=N/NC(=O)c2cc(-c3cccc(OC)c3)nc3ccccc23)ccc1O | 6.59 µM
C[n+]1c2n(c3ccccc31)N=C(c1cc(C(C)(C)C)c(O)c(C(C)(C)C)c1)CS2 | 0.39 µM
O=C1/C(=N\S(=O)(=O)c2cccs2)C([n+]2cccc(Cc3ccccc3)c2)=C([O-])c2ccccc21 | 7.28 µM
CCOC(=O)c1cnc(-n2nc(C)cc2C)nc1NCc1ccccc1 | 7.8 µM
O=[N+]([O-])/C=C/c1ccc2c(ccn2Cc2ccccc2)c1 | 7.72 µM
O=C(/C=C/NNC(=O)c1ccccc1)c1ccc([N+](=O)[O-])cc1 | 5.76 µM
COc1cc(Br)cc(/C=N/NC(=O)Cc2ccc(C(F)(F)F)cc2[N+](=O)[O-])c1O | 14.7 µM
COc1ccccc1NC(=O)c1cc2cc(Br)ccc2cc1O | 7.8 µM
N#Cc1ccc(C(=O)Nc2nc(-c3cccs3)c(C(=O)C(F)(F)F)s2)cc1 | 4.37 µM
Oc1ccc2ccccc2c1/C=N/Nc1nnc(-c2ncc[nH]2)c2ccccc12 | 3.39 µM
c1ccc(CNc2c(-c3cccc(SC4CCCCC4)c3)nc3ccccn23)cc1 | 2.98 µM
Cc1cc(C2CCCCC2)n(O)c(=O)c1 | 2.69 µM
O=C(N/N=C/c1cc(Br)ccc1O)C(=O)Nc1ccccc1OC(F)(F)C(F)F | 6.77 µM
CC(C)(C)n1ncc2c(=O)n(Cc3cccc(Cn4cnc5c(cnn5C(C)(C)C)c4=O)c3F)cnc21 | 4.32 µM
Cc1ccc(S(=O)(=O)Nc2ccc(NC(=O)Nc3cccc(C(F)(F)F)c3)cc2)cc1 | 11.9 µM
O=C(c1ccccc1)c1c2c(cc3sc4ccccc4[n+]13)-c1cccc3cccc-2c13 | 2.26 µM
CCCCCn1c(=O)c(C(=O)Nc2nc3ccccc3[nH]2)c(O)c2ccccc21 | 7.03 µM
Cc1ccc(S(=O)(=O)N2CCN(c3ncnc4ccccc34)CC2)cc1 | 6.28 µM
CCCCC1CCC(C(=O)N(CC(C)C)c2c(N)n(Cc3ccccc3)c(=O)[nH]c2=O)CC1 (configuration not stated) | 6.87 µM
C=CC[n+]1c(-c2ccc(OCC)cc2)csc1NNC(=O)Nc1ccccc1 | 12.1 µM
Cc1ccccc1N1CCN(Cc2c[nH]c3ccccc23)CC1 | 7.37 µM
OCCNc1nc(Nc2ccc(Cl)c(Cl)c2)nc2ccccc12 | 14.3 µM

Structure (SMILES) | AC50
O=S(=O)(/C(=C/c1ccc(C(F)(F)F)cc1)c1nc2ccccc2[nH]1)c1ccccc1 | 5.45 µM
Oc1ccccc1/C=N/Nc1nccnc1Cl | 3.97 µM
Oc1ccc(CN2CCc3ccccc3C2)c2cccnc12 | 3.7 µM
O=C(NCc1cccnc1)/C(=C\c1ccc(-c2cccc(Cl)c2)o1)S(=O)(=O)c1ccccc1 | 6.78 µM
CCS(=O)(=O)c1ncc(Cl)c(C(=O)Nc2ccc(S(=O)(=O)N3CCCC(C)C3)cc2)n1 (configuration not stated) | 6.96 µM
O=C(Nc1ccc(N2CCN(Cc3ccccc3Cl)CC2)cc1)c1cccnc1 | 5.98 µM
CCCNC(=O)c1ccc2c(=O)c(O)c(-c3ccc(Cl)c([N+](=O)[O-])c3)[nH]c2c1 | 10.8 µM
CCC1CCCCN1S(=O)(=O)c1ccc(NC(=O)c2nc(S(C)(=O)=O)ncc2Cl)cc1 (configuration not stated) | 8.01 µM
COc1ccc(S(=O)(=O)/N=C2\C=C(Nc3ccc(O)cc3)C(=O)c3ccccc32)cc1 | 1.65 µM
O=S1(=O)C=C(Sc2nc3ccccc3s2)c2ccccc21 | 5.35 µM
Cc1ccnc(NC(=O)c2ccc([N+](=O)[O-])s2)c1 | 8.41 µM
O=[N+]([O-])c1ccc(O)c(/C=N/NC(=S)Nc2ccc(Cl)cc2Cl)c1 | 17.9 µM
CCOc1ccc(OCc2ccc(C(=O)NN=Cc3ccc[nH]3)cc2)cc1 | 0.739 µM
Cc1ccc(Nc2c(-c3ccccn3)nc3ccc(C)cn23)cc1 | 7.28 µM
CC(C)CC(=O)NC(c1cccs1)c1ccc2cccnc2c1O (configuration not stated) | 2.33 µM
COc1ccc(N=Nc2ccc(O)c3ncccc23)cc1 | 4.26 µM
NC(N)=N/N=C/c1cn(-c2ccccc2)nc1-c1cccs1 | 14.2 µM
c1ccc(/N=C2\N=C(Nc3ccccn3)c3ccccc32)nc1 | 5.52 µM
COc1cccc(/C=N/NC(=O)c2cc3c(OC)ccc(OC)c3[nH]2)c1O | 10.7 µM
Cc1cc(N/N=C/c2ccc(O)cc2O)nc(-n2nc(C)cc2C)n1 | 6.67 µM
O=[N+]([O-])c1cccc2c(N3CCCC3)ccnc12 | 7.28 µM
CCCCc1ccc(N/C(N)=N/c2nc(C)cc(C)n2)cc1 | 5.12 µM

Structure (SMILES) | AC50
CN(C)C(=O)c1ccc(NC(=O)c2cccc(S(=O)(=O)N3CCCCCC3)c2)cc1 | > 26 µM (inactive)
O=C(N/N=C/c1cccc(F)c1)c1c(O)c2ccccc2[nH]c1=O | 4.35 µM
COc1ccc(-n2c(-c3ccc(Cl)cc3)c[n+]3c2CCCCC3)cc1 | 1.6 µM
O=C(NCc1cccnc1)c1ccc(-c2cc3ccccc3oc2=O)cc1 | 5.35 µM
Cc1cccc(Nc2nc(NCc3ccco3)c3ccccc3n2)c1 | 8.03 µM
C=C1C(=O)O[C@@H]2C[C@@H](C)[C@@H]3C4OC4C(=O)[C@@]3(C)[C@@H](O)[C@H]12 (some centres not stated) | 7.57 µM
CC(C)(C)OC(=O)NCCCCCc1cn([C@@H](CO)C(=O)NCCCCCCCCCCC(=O)N2CCN(C(=O)OC(C)(C)C)CC2)nn1 | 7.05 µM
COc1ccc(CC(=O)Nc2nc(-c3ccc(F)c(F)c3)cs2)cc1OC | 7.2 µM
Oc1ccc(-c2n[nH]c(C(F)(F)F)c2-c2ccccc2)c(O)c1 | 5.86 µM
CN(C)CCCN(C(=O)c1ccc(S(=O)(=O)N(C)Cc2ccccc2)cc1)c1nc2cc3c(cc2s1)OCO3 | 15.9 µM
O=[N+]([O-])c1cc(/C=N/Nc2nc3ccccc3[nH]2)c(O)cc1O | 2.01 µM
COc1cc(NC(=O)c2cc3ccccc3cc2O)c(OC)cc1Cl | 4.68 µM
O=C(Nc1ccc(Cl)cc1)Nc1csc([N+](=O)[O-])c1 | 7.65 µM
O=C(Nc1ccc(F)cc1)Nc1cc(OCC(F)(F)F)cc(OCC(F)(F)F)c1 | 2.25 µM
Cc1nnc(N/N=C/c2ccccn2)[nH]c1=O | 5.46 µM
Cc1ccc(-n2c(-c3ccccc3)c[n+]3c2CCc2ccccc2-3)c(C)c1 | 1.91 µM
Cc1cc(C)c(S(=O)(=O)/N=C2\C=C(Nc3ccc(C(=O)O)cc3)C(=O)c3ccccc32)c(C)c1 | 5.39 µM
COc1cc(OC)nc(-n2ncc(Br)c(Br)c2=O)n1 | 6.66 µM
O=C(CSc1nnc(Cn2nnc3ccccc32)o1)N(Cc1ccc(F)cc1)c1ccccc1 | 7.94 µM

From PubChem BioAssay AID463229 (Broad Institute, 2010)
